# Patent US20250325677A1, “STAT6 DEGRADERS” (Gilead Sciences, Inc., priority 2024, published 2025)
# Target: STAT6 (Homo sapiens (Human), UniProt P42226)
# Assay: STAT6 degrader assay (HiBiT, HeLa LgBiT clone 4.14)
# Format: cell-based
# Details: HeLa LgBiT clone 4.14, 4-24 h
# Method: This was a HiBit based assay. A HeLa cell line stably transfected with a small protein, LgBit (Large Bit) was obtained from Promega. These cells express endogenous STAT6. A small 11 amino acid gene sequence (HiBiT) was inserted in the STAT6 gene using CRISPR technology. Once STAT6 protein is expressed in the cells, the HiBiT sequence will bind the LgBit in the cells resulting in a functional NanoBiT protein, giving a luminescent tag to STAT6, see FIG. 2.
# Single cell clones were prepared and the clone 4.14 was selected for the assay based on that clone showing high luminescence, high STAT6 phosphorylation upon stimulation with IL-4, and inhibition of luminescence when cells were treated with STAT6 siRNA.
# HeLa LgBiT clone 4.14 cells were suspended in DMEM with 10% FCS, 1% Pen/Strep, Na-pyrovate and Hygromycin B, at a concentration of 1.25*105 cells pr mL. 5000 cells were added pr well of a 384 well plate and 20 nL of compound was added by Echo® liquid handler. NN6394A (terfenadine, a toxic compound) was added to control wells at 50 μM concentration to establish the assay window. In these wells the cells are dead which equals 100% degradation of STAT6.
# After 4-24 h of incubation at 37° C. under 5% CO2/95% air, 5 μL substrate (Nano-GLO®) was added to the wells and the plates were centrifuged and incubated for 0.5 h.
# The luminescence in the wells as a measure of non-degraded STAT6 was measured in a plate reader (BMG Pherastar FSX). The measured DC50 (in nM) was determined.
# The dose-response curves Examples 3p1, 3e50, 3e17, and 3e51 are shown below (where percent degradation is plotted vs. test compound concentration in M on a log-scale).
# Sequence of STAT6 (P42226 whole entry): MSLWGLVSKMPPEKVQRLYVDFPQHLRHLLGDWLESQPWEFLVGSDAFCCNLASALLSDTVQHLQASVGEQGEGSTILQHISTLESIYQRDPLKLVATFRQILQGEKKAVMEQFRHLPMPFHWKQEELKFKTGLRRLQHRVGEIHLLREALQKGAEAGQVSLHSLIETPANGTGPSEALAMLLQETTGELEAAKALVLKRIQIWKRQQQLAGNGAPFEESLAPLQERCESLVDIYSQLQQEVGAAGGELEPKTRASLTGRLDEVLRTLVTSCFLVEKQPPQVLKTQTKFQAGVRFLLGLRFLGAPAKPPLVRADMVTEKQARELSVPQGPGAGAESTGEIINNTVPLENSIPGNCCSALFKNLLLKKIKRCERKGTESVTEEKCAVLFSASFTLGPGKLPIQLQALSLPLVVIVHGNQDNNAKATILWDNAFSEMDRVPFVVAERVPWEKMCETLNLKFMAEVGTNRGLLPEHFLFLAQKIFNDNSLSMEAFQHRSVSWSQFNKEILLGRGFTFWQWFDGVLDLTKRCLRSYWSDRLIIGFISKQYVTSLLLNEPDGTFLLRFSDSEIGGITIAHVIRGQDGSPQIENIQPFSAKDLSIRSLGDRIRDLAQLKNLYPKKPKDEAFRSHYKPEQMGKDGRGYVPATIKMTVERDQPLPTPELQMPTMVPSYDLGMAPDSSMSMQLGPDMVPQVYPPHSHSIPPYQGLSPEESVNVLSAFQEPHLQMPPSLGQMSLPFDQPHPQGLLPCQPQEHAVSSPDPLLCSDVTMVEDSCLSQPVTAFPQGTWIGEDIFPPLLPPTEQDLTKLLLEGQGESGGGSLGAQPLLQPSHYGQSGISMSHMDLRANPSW
row,Compound,STAT6 degradation Emax (%)
1,"3-(4-((4-((1-(4-(1-((4-(1H-indazol-5-yl)-1-methyl-1H-pyrrolo[2,3-b]pyridin-2-yl)methyl)-piperidin-4-yl)benzoyl)piperidin-4-yl)methyl)piperidin-1-yl)methyl)-3-(2-methoxyethyl)-2-oxo-2,3-dihydro-1H-benzo[d]imidazol-1-yl)piperidine-2,6-dione [Example 3i2]",40-50%

# Same assay, conditions: HeLa LgBiT clone 4.14, 4-24 h; geometric mean; given for compounds with >80% Emax; read-out: STAT6 degradation DC50
row,Compound,DC50 [nM]
1,"COCc1nc2cc(-c3ccnc4c3cc([C@H](C)N3CCC(c5ccc(C(=O)N6CCC(CN7CCN(Cc8ccc9c(c8)n(C)c(=O)n9C8CCC(=O)NC8=O)CC7)CC6)cc5)CC3)n4C)ccc2[nH]1 (stereo partly drawn) [Example 3e66, 3-(5-((4-((1-(4-(1-((S)-1-(4-(2-(methoxymethyl)-1H-benzo[d]imidazol-5-yl)-1-methyl-1H-pyrrolo[2,3-b]pyridin-2-yl)ethyl)piperidin-4-yl)benzoyl)piperidin-4-yl)methyl)piperazin-1-yl)methyl)-3-methyl-2-oxo-2,3-dihydro-1H-benzo[d]imidazol-1-yl)piperidine-2,6-dione]",0.5
2,"CNc1ccc(-c2ccnc3c2cc([C@H](C)N2CC=C(c4c(C)cc(C(=O)N5CCC(CC6CCN(c7ccc8c(c7)C7(CC7)C(=O)N8C7CCC(=O)NC7=O)CC6)CC5)cc4F)CC2)n3C)cn1 (stereo partly drawn) [Example 3h8, 3-(5′-(4-((1-(3-fluoro-5-methyl-4-(1-((S)-1-(1-methyl-4-(6-(methylamino)pyridin-3-yl)-1H-pyrrolo[2,3-b]pyridin-2-yl)ethyl)-1,2,3,6-tetrahydropyridin-4-yl)benzoyl)piperidin-4-yl)methyl)piperidin-1-yl)-2′-oxospiro[cyclopropane-1,3′-indolin]-1′-yl)piperidine-2,6-dione]",28.4
3,"Cc1cc(C(=O)N2CCC(CN3CCN(Cc4ccc5c(c4)n(C)c(=O)n5C4CCC(=O)NC4=O)CC3)CC2)cc(C)c1C1=CCN(Cc2cc3c(-c4ccc(N)nc4)ccnc3n2C)CC1 (stereo not drawn) [Example 3e12, 3-(5-((4-((1-(4-(1-((4-(6-aminopyridin-3-yl)-1-methyl-1H-pyrrolo[2,3-b]pyridin-2-yl)methyl)-1,2,3,6-tetrahydropyridin-4-yl)-3,5-dimethylbenzoyl)piperidin-4-yl)methyl)piperazin-1-yl)methyl)-3-methyl-2-oxo-2,3-dihydro-1H-benzo[d]imidazol-1-yl)piperidine-2,6-dione]",0.9
4,"[2H]C([2H])([2H])n1c(=O)n(C2CCC(=O)NC2=O)c2ccc(CN3CCN(CC4CCN(C(=O)c5ccc(C6CCN([C@@H](C)c7cc8c(-c9ccc(N)nc9)ccnc8n7C)CC6)cc5)CC4)CC3)cc21 (stereo partly drawn) [Example 3e26, 3-(5-((4-((1-(4-(1-((S)-1-(4-(6-aminopyridin-3-yl)-1-methyl-1H-pyrrolo[2,3-b]pyridin-2-yl)ethyl)piperidin-4-yl)benzoyl)piperidin-4-yl)methyl)piperazin-1-yl)methyl)-3-(methyl-d3)-2-oxo-2,3-dihydro-1H-benzo[d]imidazol-1-yl)piperidine-2,6-dione]",1.1
5,"COCc1nc2cc(-c3ccnc4c3cc(CN3CCC(c5ccc(C(=O)N(C)c6ccc(C7CCN(Cc8ccc9c(c8)oc(=O)n9C8CCC(=O)NC8=O)CC7)cc6)cc5)CC3)n4C)ccc2[nH]1 (stereo not drawn) [Example 3n4, N-(4-(1-((3-(2,6-dioxopiperidin-3-yl)-2-oxo-2,3-dihydrobenzo[d]oxazol-6-yl)methyl)piperidin-4-yl)phenyl)-4-(1-((4-(2-(methoxymethyl)-1H-benzo[d]imidazol-5-yl)-1-methyl-1H-pyrrolo[2,3-b]pyridin-2-yl)methyl)piperidin-4-yl)-N-methylbenzamide]",0.1
6,"CNc1ccc(-c2ccnc3c2cc([C@H](C)N2CCC(c4ccc(C(=O)N5CCC(CN6CCN(Cc7cc8c(cc7F)n([C@H]7CCC(=O)NC7=O)c(=O)n8C)C[C@@H]6C)CC5)cc4)CC2)n3C)cn1 [Example 3h23, (S)-3-(6-fluoro-3-methyl-5-(((S)-3-methyl-4-((1-(4-(1-((S)-1-(1-methyl-4-(6-(methylamino)pyridin-3-yl)-1H-pyrrolo[2,3-b]pyridin-2-yl)ethyl)piperidin-4-yl)benzoyl)piperidin-4-yl)methyl)piperazin-1-yl)methyl)-2-oxo-2,3-dihydro-1H-benzo[d]imidazol-1-yl)piperidine-2,6-dione]",1.5
7,"COCc1nc2cc(-c3ccnc4c3cc(CN3CCC(c5ccc(C(=O)N6CCC(CN7CCN(Cc8ccc9c(c8)oc(=O)n9C8CCC(=O)NC8=O)CC7)CC6)cc5)CC3)n4C)ccc2[nH]1 (stereo not drawn) [Example 3n2, 3-(6-((4-((1-(4-(1-((4-(2-(methoxymethyl)-1H-benzo[d]imidazol-5-yl)-1-methyl-1H-pyrrolo[2,3-b]pyridin-2-yl)methyl)piperidin-4-yl)benzoyl)piperidin-4-yl)methyl)piperazin-1-yl)methyl)-2-oxobenzo[d]-oxazol-3 (2H)-yl)piperidine-2,6-dione]",1.1

# Same assay, conditions: HeLa LgBiT clone 4.14, 4-24 h; read-out: STAT6 degradation Emax (%)
row,Compound,Emax [%]
1,"C[C@H]1CN(Cc2ccc3c(c2)n(C2CC2)c(=O)n3C2CCC(=O)N(C)C2=O)CCN1CC1CCN(C(=O)c2ccc(C3CCN([C@@H](C)c4cc5c(-c6ccc(N)nc6)ccnc5n4C)CC3)cc2)CC1 (stereo partly drawn) [Example 3h28, 3-(5-(((S)-4-((1-(4-(1-((S)-1-(4-(6-aminopyridin-3-yl)-1-methyl-1H-pyrrolo[2,3-b]pyridin-2-yl)ethyl)piperidin-4-yl)benzoyl)piperidin-4-yl)methyl)-3-methylpiperazin-1-yl)methyl)-3-cyclopropyl-2-oxo-2,3-dihydro-1H-benzo[d]imidazol-1-yl)-1-methylpiperidine-2,6-dione]",20 to 30
2,"CNc1ccc(-c2ccnc3c2cc([C@H](C)N2CC=C(c4c(C)cc(C(=O)N5CCC(CN6CCN(c7ccc8c(c7)C7(CC7)C(=O)N8C7CCC(=O)NC7=O)C[C@@H]6C)CC5)cc4F)CC2)n3C)cn1 (stereo partly drawn) [Example 3h19, 3-(5′-((S)-4-((1-(3-fluoro-5-methyl-4-(1-((S)-1-(1-methyl-4-(6-(methylamino)pyridin-3-yl)-1H-pyrrolo[2,3-b]pyridin-2-yl)ethyl)-1,2,3,6-tetrahydropyridin-4-yl)benzoyl)piperidin-4-yl)methyl)-3-methylpiperazin-1-yl)-2′-oxospiro[cyclopropane-1,3′-indolin]-1′-yl)piperidine-2,6-dione]",40 to 50
3,"COCc1nc2cc(-c3ccnc4c3cc(CN3CCC(c5ccc(C(=O)N6CCC(CN7CCN(Cc8ccc9c(c8)n(C8CCC(=O)NC8=O)c(=O)n9C)CC7)CC6)cc5)CC3)n4C)ccc2[nH]1 (stereo not drawn) [Example 3o1, 3-(6-((4-((1-(4-(1-((4-(2-(methoxymethyl)-1H-benzo[d]imidazol-5-yl)-1-methyl-1H-pyrrolo[2,3-b]pyridin-2-yl)methyl)piperidin-4-yl)benzoyl)piperidin-4-yl)methyl)piperazin-1-yl)methyl)-3-methyl-2-oxo-2,3-dihydro-1H-benzo[d]imidazol-1-yl)piperidine-2,6-dione]",< 20
4,"Cn1c(CN2CCC(c3ccc(C(=O)N4CCC(CN5CCC(c6ccc7c(c6)n(C)c(=O)n7C6CCC(=O)NC6=O)CC5)CC4)cc3)CC2)cc2c(-c3ccc4[nH]ncc4c3)ccnc21 (stereo not drawn) [Example 3d1, 3-(5-(1-((1-(4-(1-((4-(1H-indazol-5-yl)-1-methyl-1H-pyrrolo[2,3-b]pyridin-2-yl)methyl)piperidin-4-yl)benzoyl)piperidin-4-yl)methyl)piperidin-4-yl)-3-methyl-2-oxo-2,3-dihydro-1H-benzo[d]imidazol-1-yl)piperidine-2,6-dione]",50 to 60
